We go through four molecules from ChEMBL document CHEMBL1201862, “PubChem BioAssay data set” (2004).

Among the test systems are HCC 2998; DU-145; 786-0; CCRF-CEM; SK-MEL-28; MCF7; SK-MEL-2; HOP-62; COLO 205; HL-60; SW-620; K562; SR; UO-31; RXF 393; HOP-92; U-251; MOLT-4; M14; UACC-62.
Holding throughout (test): growth of human tumour cells (NCI), 48 h

Each structure is given as a SMILES string.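 Where inhibition never reached the appropriate level, the endpoint shown equals the highest concentration tested. Otherwise, values were interpolated linearly from a five-concentration, 48-hour dose response in 96-well plates. GI50 marks 50% less growth.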 Calls of active or inactive are those of the source. Cut-off read from the data, not from the text of the source: active = GI50 up to about 1.1 µM and inactive = higher.

As to `Cc1ccc(C2NC(=N)NC3=C2CCOc2c3ccc3ccccc23)cc1` (stereo not given), the GI50 is 7.16 µM (inactive) in the assay with HCC 2998; 7.35 µM (inactive) in the assay with DU-145; 2.61 µM (inactive) in the assay with 786-0; 0.468 µM (active) in the assay on CCRF-CEM; 5.55 µM (inactive) in the assay with SK-MEL-28; 4.91 µM (inactive) in the assay with MCF7. For the same molecule, the GI50 in the assay with SK-MEL-2 was 36.7 µM (inactive); in the assay on HOP-62, 4.94 µM (inactive); with COLO 205 it was 20.8 µM (inactive); in the assay with HL-60, 2.96 µM (inactive); in the assay with SW-620, 6.84 µM (inactive); with K562, 2.19 µM (inactive). For the same molecule, the GI50 with SR is 0.466 µM (active); in the assay with UO-31, 42.9 µM (inactive); with RXF 393, 31.8 µM (inactive); in the assay with HOP-92 it was 5.66 µM (inactive); in the assay with U-251 it was 15.9 µM (inactive); with MOLT-4, 7.26 µM (inactive). In addition, the GI50 in the assay with M14 is 1.76 µM (inactive); with UACC-62, 2.58 µM (inactive).
Turning to `CCOC(=O)NC(Nc1ccc(S(=O)(=O)Nc2nc(C)cc(C)n2)cc1)(C(=O)OCC)C(F)(F)F` (stereo not given), the GI50 in the assay on HCC 2998, with DU-145, with 786-0, in the assay with CCRF-CEM, with SK-MEL-28 and with MCF7 was > 100 µM (inactive) each time. For the same molecule, the GI50 with SK-MEL-2, in the assay with HOP-62, in the assay on COLO 205, with HL-60, in the assay with SW-620 and in the assay with K562 was > 100 µM (inactive) throughout. The GI50 with SR was 5.33 µM (inactive); with UO-31 it was > 100 µM (inactive); in the assay with RXF 393, > 100 µM (inactive); in the assay on HOP-92, > 100 µM (inactive); in the assay with U-251, > 100 µM (inactive); in the assay with MOLT-4 it was > 100 µM (inactive). Also, the GI50 in the assay on M14 and with UACC-62 was > 100 µM (inactive) each time.
Take `O=[N+]([O-])c1cc(C(F)(F)F)cc2n[se]nc12`: the GI50 was 3.98 µM (inactive) in the assay with HCC 2998; 3.21 µM (inactive) in the assay with DU-145; 2.21 µM (inactive) in the assay on 786-0; 1.68 µM (inactive) in the assay on CCRF-CEM; 2.22 µM (inactive) in the assay on SK-MEL-28; 1.97 µM (inactive) in the assay with MCF7. Besides, the GI50 is 8.38 µM (inactive) in the assay on SK-MEL-2; 15.7 µM (inactive) in the assay on HOP-62; 2.03 µM (inactive) in the assay on COLO 205; 0.429 µM (active) in the assay on HL-60; 1.45 µM (inactive) in the assay on SW-620; 0.822 µM (active) in the assay on K562. Moreover, the GI50 is 1.36 µM (inactive) in the assay with SR; 5.53 µM (inactive) in the assay with UO-31; 2.3 µM (inactive) in the assay on RXF 393; 2.26 µM (inactive) in the assay with HOP-92; 15.1 µM (inactive) in the assay on U-251; 1.48 µM (inactive) in the assay with MOLT-4. Besides, the GI50 in the assay with M14 is 1.71 µM (inactive); in the assay on UACC-62, 4.15 µM (inactive).
As to `CC(C)C1=CC23CCC4C(C)(C(=O)O)CCCC4(C)C2CC1C1C(=O)N(c2cccc(N4C(=O)C5C6CC7C8(C)CCCC(C)(C(=O)O)C8CCC7(C=C6C(C)C)C5C4=O)c2)C(=O)C13` (stereo not given), the GI50 in the assay on HCC 2998 is 6.81 µM (inactive); with DU-145, 10.8 µM (inactive); in the assay with 786-0, 32 µM (inactive); in the assay on CCRF-CEM, 6.31 µM (inactive); in the assay on SK-MEL-28, 9.35 µM (inactive); in the assay with MCF7 it was 4.38 µM (inactive). The GI50 in the assay with SK-MEL-2 is 15.7 µM (inactive); with HOP-62 it was 12 µM (inactive); in the assay with COLO 205, 10.6 µM (inactive); in the assay with HL-60, 9.79 µM (inactive); in the assay on SW-620 it was 16.3 µM (inactive); with K562, 7.87 µM (inactive). Moreover, the GI50 with SR is 9.55 µM (inactive); in the assay on UO-31, 14.8 µM (inactive); in the assay on RXF 393, 12.6 µM (inactive); with HOP-92 it was 23.4 µM (inactive); in the assay on U-251 it was 3.24 µM (inactive); in the assay with MOLT-4, 11.1 µM (inactive). Moreover, the GI50 in the assay with M14 was 11.6 µM (inactive); in the assay with UACC-62, 16.5 µM (inactive).
